A short description of series [1]: Metabolic stability in cryopreserved human hepatocytes. It counts as in vitro ADME. As to the method:
(§1) The ADME (absorption, distribution, metabolism, and excretion) profile of our lead compound 6 was determined by standard protocols carried out by WuXi AppTec (Shanghai) Co (https://www.wuxiapptec.com/). The following tests were conducted: distribution coefficient (log D at pH 7.4), aqueous solubility (Kinetic), metabolic stability in human liver microsomes and cryopreserved human hepatocytes, bidirectional permeability in Caco-2 cells, serum protein binding, and cytochrome P450 (CYP) inhibition (CYP1A2, CYP2C9, CYP2C19, CYP2D6, and CYP3A4-M).

Series [2] concerns the target T1, ERCC1-XPF heterodimer in A549 cells (Homo sapiens, UniProt Q92889).
T1 construct: endogenous in cells; host or cells: A549
T1 sequence (Q92889 1-916): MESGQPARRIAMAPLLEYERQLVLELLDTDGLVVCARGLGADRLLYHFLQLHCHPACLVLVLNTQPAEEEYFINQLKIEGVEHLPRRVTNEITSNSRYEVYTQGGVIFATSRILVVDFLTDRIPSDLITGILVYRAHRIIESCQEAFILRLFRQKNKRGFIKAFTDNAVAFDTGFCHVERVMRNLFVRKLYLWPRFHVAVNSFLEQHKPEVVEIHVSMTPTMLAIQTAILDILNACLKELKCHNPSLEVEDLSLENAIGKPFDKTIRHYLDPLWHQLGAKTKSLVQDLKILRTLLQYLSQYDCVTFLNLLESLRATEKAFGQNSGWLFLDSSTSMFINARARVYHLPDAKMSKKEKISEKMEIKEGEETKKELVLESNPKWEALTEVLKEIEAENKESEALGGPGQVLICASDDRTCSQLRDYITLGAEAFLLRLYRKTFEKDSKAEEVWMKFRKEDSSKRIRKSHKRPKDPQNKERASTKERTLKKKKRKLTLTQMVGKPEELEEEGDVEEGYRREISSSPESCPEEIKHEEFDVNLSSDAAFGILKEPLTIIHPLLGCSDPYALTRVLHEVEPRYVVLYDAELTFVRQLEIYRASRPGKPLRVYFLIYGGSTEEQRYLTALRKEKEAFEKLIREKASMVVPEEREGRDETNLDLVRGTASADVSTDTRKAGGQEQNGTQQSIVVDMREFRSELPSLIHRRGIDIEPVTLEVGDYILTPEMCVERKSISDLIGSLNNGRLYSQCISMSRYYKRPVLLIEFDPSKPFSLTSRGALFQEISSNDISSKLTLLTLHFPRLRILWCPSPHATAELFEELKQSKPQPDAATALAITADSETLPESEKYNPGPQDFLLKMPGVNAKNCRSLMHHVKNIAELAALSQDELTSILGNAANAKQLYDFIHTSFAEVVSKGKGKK
The series can be described thus: Proximity ligation assay of ERCC1-XPF heterodimerization. The class given is cell-based. Particulars: 2 µM, 24 h. As to the method:
A previously published protocol ([73]) was followed with minor modifications. Briefly, 3 x 10^4 A549 cells were seeded in each well of an 8-well Chamber Slide system (Ibidi. Fitchburg, WI) and allowed to adhere overnight. The cells were then treated with the inhibitor (2 μM prepared from a 1 mM stock in DMSO) or vehicle control (0.2% DMSO) and incubated for 24 h. Samples were fixed and processed for protein proximity ligation analysis (PLA) by the Duolink PLA assay kit (Sigma-Aldrich, Oakville, ON) using an ERCC1 antibody (A73368-100, 1/100; EpiGentek, Farmingdale, NY) and an XPF antibody (LS-C173159, 1/100; LifeSpan BioSciences, Seattle, WA). […] Images of the interaction of ERCC1 and XPF represented as red dots were analyzed using IMARIS 9.7 software (Oxford Instruments). Results are expressed as mean values from at least three experiments conducted independently in duplicate.
To confirm that compound 6 was able to disrupt the interaction between subunits in the ERCC1-XPF heterodimer in cells, we performed PLA using A549 lung cancer cells exposed to 2 µM compound 6 or DMSO vehicle for 24 h. […] In the presence of vehicle (0.2% DMSO) alone we observed an average of 75.7 ± 15.4 foci per cell whereas in the presence of compound 6 only an average of 3.1 ± 2.6 foci per cell were detected. […]

Another series addresses CYP2C19 (Homo sapiens, UniProt P33261). The series can be described thus: Cytochrome P450 inhibition, CYP2C19. The class given is in vitro ADME. As to the method:
as §1

pIC50: −log10 of the molar value. “And” between values parts separate entries of the source, which are not always exact repeats. Equal entries are not always repeated.

One may read the pIC50 as −log10 of the IC50, conventionally taken in molar units. The low end stands for a high IC50, the high end for a low IC50.

CYP2C19, sequence (P33261 whole entry): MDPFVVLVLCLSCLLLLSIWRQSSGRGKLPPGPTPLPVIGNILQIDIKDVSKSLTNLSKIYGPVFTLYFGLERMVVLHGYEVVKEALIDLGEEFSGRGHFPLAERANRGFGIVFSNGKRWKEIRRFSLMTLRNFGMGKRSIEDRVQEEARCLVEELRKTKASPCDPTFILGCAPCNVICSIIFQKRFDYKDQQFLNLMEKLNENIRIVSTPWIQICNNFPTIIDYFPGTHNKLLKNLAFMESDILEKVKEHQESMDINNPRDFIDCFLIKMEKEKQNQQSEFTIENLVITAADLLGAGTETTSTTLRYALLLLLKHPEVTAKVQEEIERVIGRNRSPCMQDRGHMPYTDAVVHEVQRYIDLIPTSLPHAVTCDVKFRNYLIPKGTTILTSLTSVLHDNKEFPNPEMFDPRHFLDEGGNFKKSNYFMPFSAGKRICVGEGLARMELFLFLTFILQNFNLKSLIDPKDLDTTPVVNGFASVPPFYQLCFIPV

For the compound `COc1ccc2nc3cc(Cl)ccc3c(Nc3ccc(O)c(CN4CCN(CCN(C(C)C)C(C)C)CC4)c3)c2c1` [Compound 6], the “metabolic stability grade, hepatocyte assay (in words)” value in series [1] is given as “low to moderate metabolic stability”. The CLint scaled in series [1] (human, cryopreserved hepatocytes, read-out: Metabolic stability in cryopreserved human hepatocytes (clearance)) was 33.5 mL/min/kg. Further, in series [1] (human, cryopreserved hepatocytes, read-out: Metabolic stability in cryopreserved human hepatocytes T1/2), the half-life came to 1.92 h. Also, the “ERCC1-XPF PLA foci per cell” value in series [2] was 3.1 ± 2.6 foci per cell and 3 foci per cell. Also, at CYP2C19, the “CYP2C19 inhibition grade (in words)” value was “weak inhibitor” and the pIC50 was 4.97.

These data come from PMC8968952, “Modulation of ERCC1-XPF Heterodimerization Inhibition via Structural Modification of Small Molecule Inhibitor Side-Chains” (Frontiers in Oncology, 2022).
